In US12202840B2, “Compounds for the treatment or alleviation of disorders associated with Tau aggregates” (AC Immune SA, priority 2018, dated 2025):

Key:
[1] = target: T1, flTau aggregates (longest isoform of human Tau, 2N4R; 441 amino acids) (Homo sapiens, UniProt P10636); test: Full-length Tau (flTau) disaggregation assay by Thioflavin T (ThT); type: biochemical; settings: 2 μM flTau aggregates, 160 to 0.04 μM compound, 30 minutes RT, ThT fluorescence
T1 construct: 35 μM of recombinant full-length (fl)Tau in PBS were aggregated for 24 hours; made in house; host or cells: bacteria
Procedure: Biological Assay Description Full-Length Tau (flTau) Disaggregation Assay by Thioflavin T (ThT)
The longest isoform of human Tau (2N4R; 441 amino acids) was expressed in bacteria and purified. For the Tau disaggregation assay by ThT, 35 μM of recombinant full-length (fl)Tau in PBS were aggregated for 24 hours at 37° C. in presence of 50 μM of heparin (Sigma-Aldrich) and 10 mM of DTT (Sigma-Aldrich) under shaking at 750 RPM. Compounds were dissolved in anhydrous dimethyl sulfoxide (DMSO, Sigma-Aldrich) to reach a concentration of 10 mM.
(§1) flTau aggregates and serial dilutions of compounds were mixed together in PBS (volume 50 μL) to a final concentration of 2 μM of flTau aggregates and from 160 to 0.04 μM of compounds. The mixture was incubated for 30 minutes at room temperature (RT), then 40 μL of this mixture were transferred into a black 384-well plate assay (Perkin-Elmer) and mixed with 10 μL of 100 μM ThT in 250 mM glycine (both from Sigma-Aldrich) in PBS. Fluorescence (relative fluorescence units; RFU) was measured in monoplicate or duplicate on a Tecan reader (excitation: 440 nm; emission: 485 nm). Percentage of flTau disaggregation was then calculated and the halfmaximal effective concentration (EC50) was determined using GraphPad Prism version 5 (GraphPad Software) assuming a one-binding site fitting model.

[2] = target: T2, K18 aggregates (Tau K18 fragment, amino acids 244 to 372 of human Tau441) (Homo sapiens, UniProt P10636); test: Tau K18 disaggregation assay by ThT; type: biochemical; settings: 2 μM K18 aggregates, 160 to 0.04 μM compound, 30 minutes RT, ThT fluorescence; read-out: TauK18 disaggregation EC50
T2 construct: encompassing amino acids 244 to 372 of the longest isoform (2N4R) of human Tau441; host or cells: bacteria
Procedure: Tau K18 Disaggregation Assay by ThT
as §1, with “The Tau K18 fragment, encompassing amino acids 244 to 372 of the longest isoform (2N4R) of human Tau441, was expressed in bacteria and purified or bought from SignalChem. For the K18 disaggregation assay by ThT, 35 μM of recombinant K18 in PBS were aggregated for 24 hours at 37° C. in presence of 50 μM of heparin (Sigma-Aldrich) and 10 mM of DTT (Sigma-Aldrich) under shaking at 750 RPM. Compounds were dissolved in anhydrous dimethyl sulfoxide (DMSO, Sigma-Aldrich) to reach a concentration of 10 mM. K18 aggregates” for “flTau aggregates”, “of K18” for “of flTau”, “and half maximal” for “and the halfmaximal”

[3] = system: human neuroblastoma cell line overexpressing the full-length form of human Tau carrying the P301L mutation; test: Reduction of intracellular Tau aggregation (AlphaLISA); type: cell-based; settings: compound at 5 μM, 24 h; aggregated Tau normalized to total Tau, relative to DMSO-treated cells
Procedure: Reduction of Intracellular Tau Aggregation
A human neuroblastoma cell line overexpressing the full-length form of human Tau carrying the P301L mutation was cultured in complete medium [DMEM-F12 4.5 g/L Glutamax (Invitrogen), 15% FBS (Biochrom), 1% Peni/Strep (Invitrogen) supplemented with 2.5 μg/ml of G418 (Sigma-Aldrich) selection antibiotic]. The day before the experiment 5×10^5 cells/well were plated in a 6 well plate in 3 mL of complete medium. The next day, cells were incubated with DMSO or a compound of the present invention at a 5 μM for additional 24 h at 37° C. After incubation, cells were trypsinized, resupsended in 100 μl of homogenization buffer [25 mM Tris-HCl pH 7.4, 150 mM NaCl, 1 mM EDTA, 1 mM EGTA containing phosphatase inhibitors (30 mM NaF, 0.2 mM Na3VO4, 1 nM Okadaic acid, 1 mM PMSF, 5 mM Na4P2O7) and protease inhibitor cocktail (Complete™, Roche)], and then physically lysed with three rapid cycles of freezing and thawing. Samples were then directly tested in the AlphaLISA assay.
Phosphorylated, aggregated, and total Tau were quantified by AlphaLisa using the following antibody pairs: • HT7-Acceptor beads+biotin (BT)-Tau13-Donor beads: Total Tau • HT7-Acceptor beads+biotin (BT)-HT7-Donor beads: Aggregated human Tau
The Tau13 (Abcam) was biotinylated using EZ-Link® NHS-PEO Solid Phase biotinylation kit (Thermo Scientific), while the HT7-biotin was from a commercial source (Thermo Scientific).
For each antibody pairs the concentration of acceptor beads and biotinylated antibodies was optimized. All samples were first tested in a dilution series in PBS in order to identify the linear range and optimal dilution for each sample and assay. For the final protocol, the following reagents were added in a 384-well white OptiPlate (Perkin Elmer): • 5 μL of test diluted sample • 20 μL of the mixture biotin-mAb acceptor beads at the following final concentrations: • HT7-BT at 1.25 nM in combination with HT7-Acc beads at 10 μg/ml • Tau13-BT at 5 nM in combination with HT7-Acc beads at 2.5 μg/ml
After incubation of this mixture at room temperature for 1 h, 25 μL of Streptavidin Donor beads (Perkin Elmer) at 25 μg/mL were added in the dark. Plates were analyzed after 30 min incubation using the EnSpire Alpha instrument and EnSpire Workstation version 3.00.
Data for aggregated Tau were normalized to total Tau and then expressed as percentage of the DMSO-treated cells.

T1 sequence (P10636 1-441 isoform P10636-8): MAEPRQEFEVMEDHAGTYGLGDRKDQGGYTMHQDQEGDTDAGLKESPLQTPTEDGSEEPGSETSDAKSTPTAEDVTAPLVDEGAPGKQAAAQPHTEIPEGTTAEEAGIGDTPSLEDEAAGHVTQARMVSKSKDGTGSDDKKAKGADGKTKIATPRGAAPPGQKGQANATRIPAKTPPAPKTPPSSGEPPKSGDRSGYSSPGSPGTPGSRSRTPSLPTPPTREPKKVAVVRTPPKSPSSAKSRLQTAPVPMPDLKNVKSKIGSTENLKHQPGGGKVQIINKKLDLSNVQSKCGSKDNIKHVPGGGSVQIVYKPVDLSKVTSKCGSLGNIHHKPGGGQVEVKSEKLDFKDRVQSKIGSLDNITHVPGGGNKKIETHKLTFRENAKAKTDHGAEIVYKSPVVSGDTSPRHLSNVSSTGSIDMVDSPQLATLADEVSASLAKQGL
T2 sequence (P10636 561-689): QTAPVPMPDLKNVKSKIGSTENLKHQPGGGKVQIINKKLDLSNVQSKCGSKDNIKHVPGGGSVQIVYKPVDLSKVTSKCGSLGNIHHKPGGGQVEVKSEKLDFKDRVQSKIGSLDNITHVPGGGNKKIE

| SMILES | EC50 [1] [µM] | EC50 [2] [µM] | % Reduction of intracellular Tau aggregation [3] |
| --- | --- | --- | --- |
| CN(C)[C@@H]1CCc2c(c3ccc(Nc4ccc5sc(N6CCOCC6)nc5c4)nc3n2C)C1 [Example 2] | < 10 | < 10 | + (+ %25 < x < 10) |
| CC(C)N1CCc2c(c3ccc(Nc4ccc5nc(N6CCOCC6)sc5c4)nc3n2C)C1 [Example 1] | < 10 | 10 to 25 | + (+ %25 < x < 10) |
| CN(C)[C@@H]1CCc2c(c3ccc(Nc4ccc5nc(N6CCOCC6)sc5c4)nc3n2C)C1 [Example 12] | < 10 | < 10 | ++ (++ %50 < x < 25) |
